Experiment [1] relates to LTB4 synthesis in human basophilic leucocytes. As to the kind of experiment: Inhibition of arachidonic acid induced LTB4 synthesis. The experiment is classed as cell-based. Conditions: Leucocyte, HPLC, UV 271 nm. The procedure:
(§1) The inhibition of arachidonic acid induced LTB4 and LTC4 synthesis in human basophilic leucocytes was determined with liquid chromatography and UV detection. LTB4 and LTC4 were separated first by HPLC with a Spherisorb ODS colon (5 μm, 150×4.6 mm) and Spectroflow 400 Kratos Analytical pump. The flow rate was 1 ml/min and the solvents were methanol/water/acetic acid […], pH 5.0 for LTB4 and methanol/water/acetic acid/phosphoric acid (65/35/0.07/0.03), pH 5.5 for LTC4. The peaks were analyzed further with Spektroflow 773 Kratos Analytical UV absorbance detector and leukotrienes were detected at the wavelength of 271 nm and 280 nm for LTB4 and LTC4, respectively.

Experiment [2] has as its system LTC4 synthesis in human basophilic leucocytes. The experiment can be described thus: Inhibition of arachidonic acid induced LTC4 synthesis. Format: cell-based. The settings on record: Leucocyte, HPLC, UV 280 nm. The procedure: as §1
Experiment [3] relates to PDE IV. The experiment can be described thus: Inhibition of PDE IV. The experiment is classed as biochemical. Conditions: PDE isoenzymes isolated using DEAE-Sepharose chromatography. The procedure: (§2) PDE isoenzymes were isolated using DEAE-Sepharose chromatography as described by Reeves et al. in Biochem. J., 241 (1987), pp. 535-541. PDE IV and PDE III activities were determined by the method of Alajoutsijarvi and Nissinen as described in Anal. Biochem. 165 (1987), pp. 128-132.

Experiment [4] has as its target T1, PDE III (Homo sapiens, UniProt Q14432).
T1 construct: PDE isoenzymes were isolated using DEAE-Sepharose chromatography; from tissue; the cited Reeves et al. 1987 used human and guinea-pig cardiac ventricle (own knowledge)
As to the kind of experiment: Inhibition of PDE III. Format: biochemical. Conditions: PDE isoenzymes isolated using DEAE-Sepharose chromatography. As for the experimental part:
as §2

In experiment [5] the target is T1, PDE III. The settings on record: prior art compound, no test shown; cited from earlier work.
The subject of experiment [6] is PDE IV. The settings on record: prior art compound, no test shown; cited from earlier work.

pIC50: −log10 of the molar value.

T1 sequence (Q14432 whole entry): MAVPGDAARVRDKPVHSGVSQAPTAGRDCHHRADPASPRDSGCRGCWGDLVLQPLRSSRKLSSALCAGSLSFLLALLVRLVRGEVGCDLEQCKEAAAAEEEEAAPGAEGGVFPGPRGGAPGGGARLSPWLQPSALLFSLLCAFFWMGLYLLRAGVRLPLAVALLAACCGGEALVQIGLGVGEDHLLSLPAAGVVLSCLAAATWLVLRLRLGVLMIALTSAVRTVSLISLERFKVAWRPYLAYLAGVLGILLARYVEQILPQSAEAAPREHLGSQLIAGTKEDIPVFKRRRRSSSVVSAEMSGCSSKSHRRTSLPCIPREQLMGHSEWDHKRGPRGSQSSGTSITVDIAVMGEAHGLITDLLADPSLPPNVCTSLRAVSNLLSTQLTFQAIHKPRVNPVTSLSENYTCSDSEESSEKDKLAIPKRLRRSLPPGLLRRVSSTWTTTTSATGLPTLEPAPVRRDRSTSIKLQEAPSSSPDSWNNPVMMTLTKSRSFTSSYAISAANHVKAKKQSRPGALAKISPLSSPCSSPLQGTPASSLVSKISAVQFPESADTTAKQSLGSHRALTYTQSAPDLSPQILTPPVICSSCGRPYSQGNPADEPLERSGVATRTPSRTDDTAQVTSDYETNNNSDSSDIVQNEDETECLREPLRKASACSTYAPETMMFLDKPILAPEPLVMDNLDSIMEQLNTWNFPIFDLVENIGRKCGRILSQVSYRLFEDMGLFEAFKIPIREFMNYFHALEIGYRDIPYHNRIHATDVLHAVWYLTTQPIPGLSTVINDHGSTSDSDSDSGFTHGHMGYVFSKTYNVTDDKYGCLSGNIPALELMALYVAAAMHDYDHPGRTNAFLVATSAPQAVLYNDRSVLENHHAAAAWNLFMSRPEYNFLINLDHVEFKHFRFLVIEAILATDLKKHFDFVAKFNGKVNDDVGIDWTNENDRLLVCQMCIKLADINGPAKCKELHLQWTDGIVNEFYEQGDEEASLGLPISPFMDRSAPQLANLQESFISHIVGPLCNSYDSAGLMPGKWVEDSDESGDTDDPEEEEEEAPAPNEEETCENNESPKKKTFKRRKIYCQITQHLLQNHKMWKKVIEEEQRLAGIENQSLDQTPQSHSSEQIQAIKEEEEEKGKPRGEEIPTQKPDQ

In general, pIC50 refers to −log10 of the IC50, conventionally taken in molar units. On to `COc1ccc(C2CC(=O)N(O)C2)cc1OC1CCCC1` (stereo not drawn) [Example 1, 1-Hydroxy-4-(3-cyclopentyloxy-4-methoxyphenyl)-2-pyrrolidone], for which the negative-log IC50 (pIC50) is 5.43 in experiment [1], 5.49 in experiment [2], 6.05 in experiment [3] and 3.69 in experiment [4].

Take `COc1ccc(C2CNC(=O)C2)cc1OC1CCCC1` (stereo not drawn) [rolipram, 4-[3-(cyclopentyloxy)-4-methoxyphenyl]-2-pyrrolidone]: the “inhibition of PDE III (in words)” value in experiment [5] was “also inhibits PDE III”. Besides, the “PDE IV selectivity (in words)” value in experiment [6] was “not selective PDE IV inhibitor”.

The record behind these values is US5356923A, “1-hydroxy-4(3-cyclopentyloxy-4-methoxyphenyl)-2-pyrrolidone and anti-hypertensive use thereof” (Orion-yhtyma Oy, priority 1990, dated 1994).
